Data on 32 compounds can be found in ChEMBL document CHEMBL5325407, “Structure-based development of potent Plasmodium falciparum M1 and M17 aminopeptidase selective and dual inhibitors via S1'-region optimisation” (Eur J Med Chem, 2023).

A short description of series [1]: Inhibition of C-terminal 6-His tagged Plasmodium falciparum M17 aminopeptidase (85 to 605 residues) expressed in Escherichia coli BL21 (DE3) cells using H-Leu-NHMec as substrate assessed as apparent inhibition constant preincubated for 10 mins followed by substrate addition by spectrofluorimetric analysis. Conditions: read-out: Ki(app).
The test system of series [2] is Plasmodium falciparum. Description: Antiplasmodial activity against drug-sensitive Plasmodium falciparum 3D7 infected in Red blood cell assessed as growth inhibition measured after 72 hrs by LDH assay. In kind it is functional, organism-based. As to conditions: 3D7, Erythrocyte.
Series [3] in a line: Inhibition of C-terminal 6-His tagged Plasmodium falciparum M1 aminopeptidase (195 to 1085 residues) expressed in Escherichia coli BL21(DE3) cells using H-Leu-NHMec as substrate assessed as apparent inhibition constant preincubated for 10 mins followed by substrate addition by spectrofluorimetric analysis. As to conditions: read-out: Ki(app).
In series [4] the test system is Plasmodium falciparum. The series is described as follows: Inhibition of C-terminal 6-His tagged Plasmodium falciparum M17 aminopeptidase (85 to 605 residues) expressed in Escherichia coli BL21 (DE3) cells using H-Leu-NHMec as substrate at less than 500 nM preincubated for 10 mins followed by substrate addition by spectrofluorimetric analysis.
The nature of series [5]: Inhibition of C-terminal 6-His tagged Plasmodium falciparum M1 aminopeptidase (195 to 1085 residues) expressed in Escherichia coli BL21(DE3) cells using H-Leu-NHMec as substrate assessed as initial inhibition constant preincubated for 10 mins followed by substrate addition by spectrofluorimetric analysis.
Series [6] is described as follows: Inhibition of TEV-fused Plasmodium falciparum M1 aminopeptidase (192 to 1085 residues) expressed in Escherichia coli Rosetta 2 (DE3) cells using alanine para-nitroanilide as substrate assessed as apparent inhibition constant measured after 30 mins by spectrophotometric analysis. As to conditions: read-out: Ki(app).
The nature of series [7]: Kinetic solubility of the compound in 0.01 M HCL at pH 2.0 measured after 30 mins by nephelometric analysis. In kind it is physicochemical. As to conditions: read-out: Kinetic_solubility.
Series [8] is described as follows: Inhibition of TEV-fused Plasmodium falciparum M17 aminopeptidase (192 to 1085 residues) expressed in Escherichia coli Rosetta 2 (DE3) cells using alanine para-nitroanilide as substrate assessed as apparent inhibition constant measured after 30 mins by spectrophotometric analysis. Conditions: read-out: Ki(app).
Series [9] in a line: Metabolic stability in human liver microsomes assessed as half life measured for 60 mins in presence of NADPH. In kind it is ADME, Microsome.
Series [10] can be described thus: Kinetic solubility of the compound in phosphate buffer at pH 6.5 measured after 30 mins by nephelometric analysis. In kind it is physicochemical. Conditions: read-out: Kinetic_solubility.
Series [11] is described as follows: Metabolic stability in mouse liver microsomes assessed as half life measured for 60 mins in presence of NADPH. In kind it is ADME, Microsome.
Series [12] deals with Plasmodium falciparum. The series is described as follows: Inhibition of C-terminal 6-His tagged Plasmodium falciparum M1 aminopeptidase (195 to 1085 residues) expressed in Escherichia coli BL21(DE3) cells using H-Leu-NHMec as substrate at less than 500 nM preincubated for 10 mins followed by substrate addition by spectrofluorimetric analysis.

Values after ≈ are worked out from the molar mass of the structure shown. Active and inactive are the calls of the source. No cut-off for these calls is given here.

What is called EC50 is the concentration giving half of the maximal effect. For `O=C(COc1ccccc1)NC(C(=O)NO)c1ccc(-c2cc(F)c(F)c(F)c2)cc1` (stereo not given), the Ki turned out to be 137 nM in [1] and 390 nM in series [3]. Moreover, in the series with Plasmodium falciparum [2], the EC50 turned out to be 1450 nM.
In the case of `CC(C)(N)CC(=O)NC(C(=O)NO)c1ccc(-c2cc(F)c(F)c(F)c2)cc1` (stereo not given), the Ki in [1] amounted to 28 nM; in series [3], 320 nM. Moreover, in the series on Plasmodium falciparum [2], the concentration giving a half-maximal response (EC50) came to 1350 nM.
Consider `O=C(CNc1ccc2cc[nH]c2c1)NC(C(=O)NO)c1ccc(-c2cc(F)c(F)c(F)c2)cc1` (stereo not given), for which the Ki in series [1] is greater than 500 nM; in series [3] it was 146 nM. In the series on Plasmodium falciparum [2], the EC50 amounted to 220 nM.
In the case of `COc1cccc(NCC(=O)NC(C(=O)NO)c2ccc(Br)cc2)c1` (stereo not given), the Ki in series [1] is greater than 500 nM; in series [3], 72 nM. The EC50 with Plasmodium falciparum [2] was determined as 102 nM. Also, the inhibition entry in the series on Plasmodium falciparum [4] is “inactive”.
As for `O=C(CN1CCCC1)NC(C(=O)NO)c1ccc(-c2cc(F)c(F)c(F)c2)cc1` (stereo not given), the Ki was greater than 500 nM in series [1] and 456 nM in series [3]. In the series with Plasmodium falciparum [2], the concentration for a half-maximal effect (EC50) stood at 725 nM.
Consider `O=C(NC(C(=O)NO)c1ccc(-c2cc(F)c(F)c(F)c2)cc1)C1CCCN1` (stereo not given), for which the figures for the Ki in [1] and in series [3] were greater than 500 nM and 330 nM, respectively. Besides, the EC50 in the series with Plasmodium falciparum [2] was determined as 625 nM.
In the same order, the values of `O=C(CSc1ccccc1)NC(C(=O)NO)c1ccc(Br)cc1` (stereo not given) are 287 nM, 68 nM and 230 nM.
In the same order, the values of `O=C(CNc1ccc(F)cc1)NC(C(=O)NO)c1ccc(Cl)cc1` (stereo not given) are greater than 500 nM, 49 nM and 220 nM.
The matching figures for `O=C(CNc1ccccc1)NC(C(=O)NO)c1ccc(Cl)cc1` (stereo not given): greater than 500 nM, 79 nM and 200 nM.
As to `O=C(CNc1cc(F)cc(F)c1)NC(C(=O)NO)c1ccc(-c2cc(F)c(F)c(F)c2)cc1` (stereo not given), the Ki in series [1] was greater than 500 nM; in series [3] it was 131 nM; in series [5], 513 nM. Moreover, the concentration for a half-maximal effect (EC50) in the series with Plasmodium falciparum [2] worked out at 675 nM.
Regarding `CN(CC(=O)NC(C(=O)NO)c1ccc(Br)cc1)c1ccccc1` (stereo not given), the Ki is greater than 500 nM in series [1] and 18 nM in series [3]. Besides, in the series with Plasmodium falciparum [2], the concentration for a half-maximal effect (EC50) is 145 nM.
As for `CC(C)(O)CC(=O)NC(C(=O)NO)c1ccc(-c2cc(F)c(F)c(F)c2)cc1` (stereo not given), the Ki in series [1] is 90 nM; in series [3], 154 nM. Moreover, in the series with Plasmodium falciparum [2], the EC50 was 155 nM.
Regarding `O=C(CNc1cccc(F)c1)NC(C(=O)NO)c1ccc(Cl)cc1` (stereo not given), the figures for the Ki in series [1] and in series [3] were greater than 500 nM and 49 nM, respectively. Further, in the series with Plasmodium falciparum [2], the concentration for a half-maximal effect (EC50) is 175 nM.
With `O=C(CNc1ccccc1F)NC(C(=O)NO)c1ccc(-c2cc(F)c(F)c(F)c2)cc1` (stereo not given), the Ki in [1] and in [3] was greater than 500 nM in each case. In addition, the EC50 with Plasmodium falciparum [2] was determined as 285 nM.
As for `O=C(CSc1ccccc1)NC(C(=O)NO)c1ccc(-c2cc(F)c(F)c(F)c2)cc1` (stereo not given), the Ki in series [1] amounted to 238 nM; in [3], 195 nM. For the same compound, the concentration giving a half-maximal response (EC50) in the series with Plasmodium falciparum [2] worked out at 430 nM.
Turning to `O=C(CN1CCC1)NC(C(=O)NO)c1ccc(-c2cc(F)c(F)c(F)c2)cc1` (stereo not given), the Ki in series [1] was greater than 500 nM; in series [3], 263 nM. The EC50 with Plasmodium falciparum [2] turned out to be 1800 nM.
Take `O=C(CNc1ccccc1F)NC(C(=O)NO)c1ccc(Br)cc1` (stereo not given): the Ki in series [1] is greater than 500 nM; in series [3] it was 26 nM. Moreover, the EC50 in the series on Plasmodium falciparum [2] was determined as 155 nM.
In the same order, the values of `O=C(NC(C(=O)NO)c1ccc(-c2cc(F)c(F)c(F)c2)cc1)C1CCO1` (stereo not given) are greater than 500 nM, 203 nM and 350 nM.
Take `CC(C)(N)C(=O)NC(C(=O)NO)c1ccc(-c2cc(F)c(F)c(F)c2)cc1` (stereo not given): the results for the Ki in series [1] and in series [3] were greater than 500 nM and 227 nM, respectively. For the same compound, the 50% effective concentration (EC50) in the series with Plasmodium falciparum [2] was found to be 1200 nM.
As for `CC1(C(=O)NC(C(=O)NO)c2ccc(-c3cc(F)c(F)c(F)c3)cc2)COC1` (stereo not given), the Ki was 294 nM in series [1] and 439 nM in series [3]. Also, the concentration for a half-maximal effect (EC50) with Plasmodium falciparum [2] turned out to be 610 nM.
In the case of `O=C(CNc1ccc(F)cc1)NC(C(=O)NO)c1ccc(Br)cc1` (stereo not given), the Ki in series [1] was greater than 500 nM; in series [3] it was 38 nM. The concentration for a half-maximal effect (EC50) in the series on Plasmodium falciparum [2] amounted to 250 nM.
Usually half-life stands for the time in which the quantity being followed falls by half. For the compound `CC(C)(C)CC(=O)NC(C(=O)NO)c1ccc(-c2cc(F)c(F)c(F)c2)cc1` (stereo not given), the Ki in series [6] is 269 nM; in [8], 101 nM. The solubility kinetic at 0.5 h in [7] and in [10] was 12.5 µg/mL (≈ 31.7 µM) each time. Besides, the half-maximal effective concentration (EC50) in the series on Plasmodium falciparum [2] was 63 nM. The half-life in series [9] stood at 2.48 h; in [11], 1.5 h.
For `O=C(CCc1ccccc1)NC(C(=O)NO)c1ccc(Br)cc1` (stereo not given), the figures for the Ki in [1] and in series [3] were 14 nM and 222 nM, respectively. In addition, the concentration for a half-maximal effect (EC50) with Plasmodium falciparum [2] amounted to 205 nM.
As for `COc1ccc(NCC(=O)NC(C(=O)NO)c2ccc(Br)cc2)cc1` (stereo not given), the Ki in [1] was greater than 500 nM; in [3] it was 88 nM. Besides, the EC50 with Plasmodium falciparum [2] amounted to 114 nM. Further, in the series on Plasmodium falciparum [4], the inhibition result is “inactive”.
Turning to `O=C(CNc1cc(F)cc(F)c1)NC(C(=O)NO)c1ccc(Br)cc1` (stereo not given), the Ki in series [1] is greater than 500 nM; in series [3], 16 nM. Also, the EC50 in the series on Plasmodium falciparum [2] came to 250 nM.
Regarding `O=C(CNc1ccc2cc[nH]c2c1)NC(C(=O)NO)c1ccc(Br)cc1` (stereo not given), the Ki in series [1] is greater than 500 nM; in [3] it was 35 nM. Moreover, the concentration giving a half-maximal response (EC50) in the series with Plasmodium falciparum [2] came out at 155 nM.
For `O=C(CNc1ccccc1)NC(C(=O)NO)c1ccc(Br)cc1` (stereo not given), the values for the Ki in series [1] and in [3] were greater than 500 nM and 36 nM, respectively. The EC50 with Plasmodium falciparum [2] amounted to 175 nM.
`CN(C)C(C)(C)CC(=O)NC(C(=O)NO)c1ccc(-c2cc(F)c(F)c(F)c2)cc1` (stereo not given): the Ki in series [1] worked out at 293 nM; in series [3] it was 500 nM. In addition, the EC50 in the series on Plasmodium falciparum [2] is 825 nM.
Take `COc1ccccc1NCC(=O)NC(C(=O)NO)c1ccc(Br)cc1` (stereo not given): the Ki in [1] is greater than 500 nM; in series [3], 128 nM. Moreover, the 50% effective concentration (EC50) in the series on Plasmodium falciparum [2] worked out at 145 nM. Also, in the series with Plasmodium falciparum [4], the inhibition entry was “inactive”.
Regarding `O=C(NC1CCCC1)NC(C(=O)NO)c1ccc(-c2cc(F)c(F)c(F)c2)cc1` (stereo not given), the values for the Ki in series [1] and in series [3] were 122 nM and 311 nM, respectively. Besides, the half-maximal effective concentration (EC50) in the series on Plasmodium falciparum [2] stood at 370 nM.
Regarding `O=C(NC(C(=O)NO)c1ccc(-c2cc(F)c(F)c(F)c2)cc1)c1cc2ccccc2[nH]1` (stereo not given), the inhibition entry with Plasmodium falciparum [12] and in the series on Plasmodium falciparum [4] was “inactive” throughout. The Ki in [1] and in series [3] was greater than 500 nM each time.
Turning to `CC(C)NC(=O)NC(C(=O)NO)c1ccc(-c2cc(F)c(F)c(F)c2)cc1` (stereo not given), the results for the Ki in series [1] and in series [3] were 120 nM and greater than 500 nM, respectively. In the series on Plasmodium falciparum [2], the concentration giving a half-maximal response (EC50) amounted to 285 nM.
